From patent US20160235727A1, “NOVEL PYRROLIDINE DERIVED BETA 3 ADRENERGIC RECEPTOR AGONISTS” (Merck Sharp & Dohme Corp., priority 2013, published 2016)

Target: T1, human β3-AR (Homo sapiens, UniProt P13945)
T1 construct: expressed in transfected cells; host or cells: CHO (Chinese hamster ovary) cells, stably transfected
Assay: cAMP functional agonist assay (LANCE TR-FRET) in CHO cells expressing cloned human β3-AR
Type: cell-based
Conditions: for EC50: CHO cells stably expressing cloned human β3-adrenoceptor, cAMP release, read-out: Human β3-AR Agonism EC50; for Fold drop in potency vs. 2-chloropyridine analog: EC50 of comparative example divided by EC50 of corresponding 2-chloropyridine compound; for Human β3-AR Agonist Activity (%): percent maximum activation relative to isoproterenol

T1 sequence (P13945 whole entry): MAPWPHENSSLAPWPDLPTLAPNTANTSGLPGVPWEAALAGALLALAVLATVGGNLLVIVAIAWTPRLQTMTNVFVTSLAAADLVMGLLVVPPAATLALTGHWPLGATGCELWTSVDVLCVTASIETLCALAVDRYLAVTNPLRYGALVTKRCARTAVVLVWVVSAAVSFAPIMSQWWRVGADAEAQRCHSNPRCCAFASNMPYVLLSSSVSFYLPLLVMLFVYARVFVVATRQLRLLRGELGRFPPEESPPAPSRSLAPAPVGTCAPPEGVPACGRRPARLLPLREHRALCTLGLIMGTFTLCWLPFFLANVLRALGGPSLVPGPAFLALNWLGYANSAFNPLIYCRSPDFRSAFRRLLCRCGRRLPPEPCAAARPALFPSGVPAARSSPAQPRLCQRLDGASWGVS

Row | EC50 | Fold drop in potency vs. 2-chloropyridine analog | Human β3-AR Agonist Activity (%) | SMILES
1 | 17 nM | 4.5 fold | 112% | Cc1n[nH]c(CN(C)C(=O)c2ccc(C[C@@H]3CC[C@H]([C@H](O)c4ccccc4)N3)cc2)c1Cl [Example 17-B, N-((4-chloro-5-methyl-1H-pyrazol-3-yl)methyl)-4-(((2S,5R)-5-((R)-hydroxy(phenyl)methyl)pyrrolidin-2-yl)methyl)-N-methylbenzamide]
2 | 109 nM | 6.0 fold | 96% | COc1ncccc1CN(C)C(=O)c1ccc(C[C@@H]2CC[C@H]([C@H](O)c3ccccc3)N2)cc1 [Example 25-B, 4-(((2S,5R)-5-((R)-hydroxy(phenyl)methyl)pyrrolidin-2-yl)methyl)-N-((2-methoxypyridin-3-yl)methyl)-N-methylbenzamide]
3 | 6 nM | – | 90% | COC(=O)c1cncc(CN(C)C(=O)c2ccc(C[C@@H]3CC[C@H]([C@H](O)c4ccc(Cl)nc4)N3)cc2)c1 [Example 34-A, Methyl 5-((4-(((2S,5R)-5-((R)-(6-chloropyridin-3-yl)(hydroxy)methyl)pyrrolidin-2-yl)methyl)-N-methylbenzamido)methyl)nicotinate]
4 | 59 nM | 4.3 fold | 101% | Cc1nnc(-c2cncc(CN(C)C(=O)c3ccc(C[C@@H]4CC[C@H]([C@H](O)c5ccccc5)N4)cc3)c2)o1 [Example 36-B, 4-(((2S,5R)-5-((R)-hydroxy(phenyl)methyl)pyrrolidin-2-yl)methyl)-N-methyl-N-((5-(5-methyl-1,3,4-oxadiazol-2-yl)pyridin-3-yl)methyl)benzamide]
5 | 3 nM | 1.6 fold | 106% | CCC(c1cc(C)[nH]n1)N(C)C(=O)c1ccc(C[C@@H]2CC[C@H]([C@H](O)c3cccnc3)N2)cc1 (stereo partly drawn) [Example 5-H, 4-(((2S,5R)-5-((R)-hydroxy(pyridin-3-yl)methyl)pyrrolidin-2-yl)methyl)-N-methyl-N-(1-(5-methyl-1H-pyrazol-3-yl)propyl)benzamide]
6 | 7 nM | 14.1 fold | 103% | Cc1cc(CN(C)C(=O)c2ccc(C[C@@H]3CC[C@H]([C@H](O)c4cccnc4)N3)cc2)cnc1F [Example 39-H]
7 | 118 nM | – | 86% | COC(C)CN(C)C(=O)c1ccc(C[C@@H]2CC[C@H]([C@H](O)c3ccc(Cl)nc3)N2)cc1 (stereo partly drawn) [Example 2-A, 4-(((2S,5R)-5-((R)-(6-chloropyridin-3-yl)(hydroxy)methyl)pyrrolidin-2-yl)methyl)-N-(2-methoxypropyl)-N-methylbenzamide]
8 | 18 nM | – | 98% | COc1ncccc1CN(C)C(=O)c1ccc(C[C@@H]2CC[C@H]([C@H](O)c3ccc(Cl)nc3)N2)cc1 [Example 25-A, 4-(((2S,5R)-5-((R)-(6-chloropyridin-3-yl)(hydroxy)methyl)pyrrolidin-2-yl)methyl)-N-((2-methoxypyridin-3-yl)methyl)-N-methylbenzamide]
9 | 3130 nM | 268.2 fold | 60% | Cc1cc([C@@H](O)[C@H]2CC[C@@H](Cc3ccc(C(=O)N(C)Cc4cnccn4)cc3)N2)cnc1Cl [Example 40-S, 4-(((2S,5R)-5-((R)-(6-chloro-5-methylpyridin-3-yl)(hydroxy)methyl)pyrrolidin-2-yl)methyl)-N-methyl-N-(pyrazin-2-ylmethyl)benzamide]
10 | 5 nM | 5.9 fold | 112% | Cc1[nH]nc(CN(C)C(=O)c2ccc(C[C@@H]3CC[C@H]([C@H](O)c4ccccc4)N3)cc2)c1O [Example 15-B, 4-(((2S, 5R)-5-((R)-hydroxy(phenyl)methyl)pyrrolidin-2-yl)methyl)-N-((4-hydroxy-5-methyl-1H-pyrazol-3-yl)methyl)-N-methylbenzamide]
11 | 2 nM | – | 99% | CN(Cc1n[nH]c2c1CCC2)C(=O)c1ccc(C[C@@H]2CC[C@H]([C@H](O)c3ccc(Cl)nc3)N2)cc1 [Example 13-A, 4-(((2S,5R)-5-((R)-(6-chloropyridin-3-yl)(hydroxy)methyl)pyrrolidin-2-yl)methyl)-N-methyl-N-((1,4,5,6-tetrahydrocyclopenta[c]pyrazol-3-yl)methyl)benzamide]
12 | 62 nM | 3.6 fold | 102% | CN(Cc1cncc(C#N)c1)C(=O)c1ccc(C[C@@H]2CC[C@H]([C@H](O)c3ccccc3)N2)cc1 [Example 35-B, N-((5-cyanopyridin-3-yl)methyl)-4-(((2S,5R)-5-((R)-hydroxy(phenyl)methyl)pyrrolidin-2-yl)methyl)-N-methylbenzamide]
13 | 7 nM | – | 96% | CC(O)c1cncc(CN(C)C(=O)c2ccc(C[C@@H]3CC[C@H]([C@H](O)c4ccc(Cl)nc4)N3)cc2)c1 (stereo partly drawn) [Example 31-A, (((2S,5R)-5-((R)-(6-chloropyridin-3-yl)(hydroxy)methyl)pyrrolidin-2-yl)methyl)-N-((5-(1-hydroxyethyl)pyridin-3-yl)methyl)-N-methylbenzamide]
14 | 732 nM | 4.2 fold | 88% | CN(Cc1ccc(=O)[nH]c1)C(=O)c1ccc(C[C@@H]2CC[C@H]([C@H](O)c3ccc(F)cc3)N2)cc1 [Example 28-F, 4-(((2S,5R)-5-((R)-(4-fluorophenyl)(hydroxy)methyl)pyrrolidin-2-yl)methyl)-N-methyl-N-((6-oxo-1,6-dihydropyridin-3-yl)methyl)benzamide]
15 | 4 nM | 1.6 fold | 97% | COCc1cc(CN(C)C(=O)c2ccc(C[C@@H]3CC[C@H]([C@H](O)c4ccc(Cl)cc4)N3)cc2)n[nH]1 [Example 9-G, 4-(((2S,5R)-5-((R)-(4-chlorophenyl)(hydroxy)methyl)pyrrolidin-2-yl)methyl)-N-((5-(methoxymethyl)-1H-pyrazol-3-yl)methyl)-N-methylbenzamide]
16 | 136 nM | 3.9 fold | 93% | CN(Cc1cccnc1F)C(=O)c1ccc(C[C@@H]2CC[C@H]([C@H](O)c3ccc(F)cc3)N2)cc1 [Example 26-F, 4-(((2S,5R)-5-((R)-(4-fluorophenyl)(hydroxy)methyl)pyrrolidin-2-yl)methyl)-N-((2-fluoropyridin-3-yl)methyl)-N-methylbenzamide]
17 | 12 nM | – | 111% | CN(Cc1cnccn1)C(=O)c1ccc(C[C@@H]2CC[C@H]([C@H](O)c3ccc(Cl)nc3)N2)cc1 [Example 40-A, 4-(((2S,5R)-5-((R)-(6-chloropyridin-3-yl)(hydroxy)methyl)pyrrolidin-2-yl)methyl)-N-methyl-N-(pyrazin-2-ylmethyl)benzamide]
18 | 410 nM | 2.0 fold | 101% | COC(CN(C)C(=O)c1ccc(C[C@@H]2CC[C@H]([C@H](O)c3ccccc3)N2)cc1)c1cccc(=O)[nH]1 (stereo partly drawn) [Example 3-B, 4-(((2S,5R)-5-((R)-hydroxy(phenyl)methyl)pyrrolidin-2-yl)methyl)-N-(2-methoxy-2-(6-oxo-1,6-dihydropyridin-2-yl)ethyl)-N-methylbenzamide]
19 | 78 nM | 14.4 fold | 106% | Cc1cc(CN(C)C(=O)c2ccc(C[C@@H]3CC[C@H]([C@H](O)c4ccc(F)nc4)N3)cc2)n[nH]1 [Example 4-Q, 4-(((2S,5R)-5-((R)-(6-fluoropyridin-3-yl)(hydroxy)methyl)pyrrolidin-2-yl)methyl)-N-methyl-N-((5-methyl-1H-pyrazol-3-yl)methyl)benzamide]
20 | 1 nM | – | 94% | Cc1[nH]nc(CN(C)C(=O)c2ccc(C[C@@H]3CC[C@H]([C@H](O)c4ccc(Cl)nc4)N3)cc2)c1O [Example 15-A, 4-(((2S,5R)-5-((R)-(6-chloropyridin-3-yl)(hydroxy)methyl)pyrrolidin-2-yl)methyl)-N-((4-hydroxy-5-methyl-1H-pyrazol-3-yl)methyl)-N-methylbenzamide]
21 | 204 nM | – | 81% | COC(CN(C)C(=O)c1ccc(C[C@@H]2CC[C@H]([C@H](O)c3ccc(Cl)nc3)N2)cc1)c1cccc(=O)[nH]1 (stereo partly drawn) [Example 3-A, 4-(((2S,5R)-5-((R)-(6-chloropyridin-3-yl)(hydroxy)methyl)pyrrolidin-2-yl)methyl)-N-(2-methoxy-2-(6-oxo-1,6-dihydropyridin-2-yl)ethyl)-N-methylbenzamide]
22 | 108 nM | 39.6 fold | 76% | COCc1cc(CN(C)C(=O)c2ccc(C[C@@H]3CC[C@H]([C@H](O)c4ccc(OC(F)F)cc4)N3)cc2)n[nH]1 [Example 9-E, 4-(((2S,5R)-5-((R)-(4-(difluoromethoxy)phenyl)(hydroxy)methyl)pyrrolidin-2-yl)methyl)-N-((5-(methoxymethyl)-1H-pyrazol-3-yl)methyl)-N-methylbenzamide]

Row | SMILES | EC50 | Fold drop in potency vs. 2-chloropyridine analog | Human β3-AR Agonist Activity (%)
23 | CN(Cc1cccnc1)C(=O)c1ccc(C[C@@H]2CC[C@H]([C@H](O)c3ccc(C#N)nc3)N2)cc1 [Example 21-O, 4-(((2S,5R)-5-((R)-(6-cyanopyridin-3-yl)(hydroxy)methyl)pyrrolidin-2-yl)methyl)-N-methyl-N-(pyridin-3-ylmethyl)benzamide] | 274 nM | 64.3 fold | 77%
24 | CCN(Cc1cccnc1)C(=O)c1ccc(C[C@@H]2CC[C@H]([C@H](O)c3ccccc3)N2)cc1 [Example 22-B, N-ethyl-4-(((2S,5R)-5-((R)-hydroxy(phenyl)methyl)pyrrolidin-2-yl)methyl)-N-(pyridin-3-ylmethyl)benzamide] | 10 nM | 2.0 fold | 103%
